Experiment [1] concerns μ-opioid receptors. Also noted: method as in PMID 27192616. As to conditions: cited from earlier work.
Experiment [2] has as its target T1, α-glucosidase (Saccharomyces cerevisiae, UniProt P53341). As to the kind of experiment: α-glucosidase inhibition and kinetics, pNPG substrate. In kind it is biochemical. As to conditions: Lineweaver–Burk plots. The method, then:
The assay was performed as described previously with some modifications. The kinetic parameters (Michaelis–Menten constant; Km and maximum velocity; Vmax) of α-glucosidase were determined by using p-nitrophenol-α-D-glucopyranoside (pNPG) as a substrate. Briefly, 0.1 unit of α-glucosidase (Sigma-Aldrich, St Louis, MO, USA) were incubated at 37 °C with 100 µL of total reaction. After 10 min, the reactions were started by adding 50 µL pNPG (Sigma-Aldrich, St Louis, MO, USA, lot number 3698310) ranging from 0 to 15 mM, and the p-nitrophenol product was measured at 405 nm using a microplate reader (Multiskan SkyHigh, Thermo Scientific, Göteborg, Sweden). The substrate concentration rates were plotted against pNPG concentrations and fitted to the Michaelis–Menten equation.
The IC50 was determined by comparing the rate of each test inhibitor concentration to that of the vehicle control (ethanol), and the IC50 was calculated by plotting the remaining activity of each inhibitor concentration to the log test inhibitor concentration. […] After co-incubation with each inhibitor for 5 min at 37 °C, the reactions were initiated by adding the p-NPG substrate (0–15 mM). The inhibition constant (Ki) values were determined from Lineweaver–Burk Plots.

For experiment [3], the target named is T2, pancreatic lipase (Sus scrofa, UniProt P00591).
T2 construct: purchased Sigma-Aldrich
T2 sequence (P00591 1-450): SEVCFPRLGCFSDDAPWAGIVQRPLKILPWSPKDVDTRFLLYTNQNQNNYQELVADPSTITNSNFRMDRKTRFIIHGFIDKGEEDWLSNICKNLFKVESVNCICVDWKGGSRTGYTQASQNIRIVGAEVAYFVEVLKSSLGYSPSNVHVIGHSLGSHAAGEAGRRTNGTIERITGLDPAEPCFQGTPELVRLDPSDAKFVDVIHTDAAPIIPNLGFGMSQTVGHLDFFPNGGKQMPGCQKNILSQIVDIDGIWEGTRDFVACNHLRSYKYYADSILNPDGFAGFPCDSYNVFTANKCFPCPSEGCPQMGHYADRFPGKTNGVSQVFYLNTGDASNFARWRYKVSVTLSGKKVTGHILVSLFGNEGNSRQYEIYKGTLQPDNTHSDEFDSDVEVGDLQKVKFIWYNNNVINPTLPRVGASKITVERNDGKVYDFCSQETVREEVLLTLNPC
As to the kind of experiment: pancreatic lipase inhibition and kinetics, 4MUO substrate. In kind it is biochemical. As to conditions: for Pancreatic Lipase mode of inhibition: Lineweaver–Burk plots. The method, then:
The kinetic parameters (Km and Vmax) of pancreatic lipase were determined using 4-methylumbelliferyl oleate (4MUO) as the substrate (Sigma-Aldrich, St Louis, MO, USA, Lot number BCCF8781). Briefly, 0.5 units of lipase (Sigma-Aldrich, St Louis, MO, USA, Lot number SLCG8579) were incubated in 96-well plates with a total volume of 100 µL (15 mM Tris-HCl buffer, pH 8.0) at 37 °C for 10 min. The reactions were initiated by adding 50 µL of 4MUO ranging from 0 to 5 mM. […] The rates at which substrate concentrations were plotted against 4MUO concentrations and fitted to the Michaelis–Menten equation. […] After 10 min, the reactions were started by adding 0.35 mM 4MUO. The reaction rates were monitored by measuring the release of 4MU from 4MUO. […] The remaining activity of lipase was determined by comparing the rate of each test inhibitor concentration to the vehicle control (ethanol), and IC50 was calculated by plotting the remaining activity of each inhibitor concentration to the log test inhibitor concentration.

Experiment [4] addresses T1, α-glucosidase. As to the kind of experiment: combination of kratom extracts or mitragynine with acarbose on α-glucosidase. Type of experiment: biochemical. The method, then:
After 10 min, the residual reactions were started by the addition of 50 µL of 0.3 mM pNPG. The reactions were left to proceed for 10 min. The absorption at 405 nm was then measured using a microplate reader, and IC50 values were calculated by GraphPad Prism version 9.3.1.

In experiment [5] the test system is lipase. On the set-up: method as in PMID 29292744. As to conditions: therapeutic oral dose of 120 mg three times per day; cited from earlier work.

Where “and” joins values, the source holds several entries; their conditions need not be identical. Equal values may be shown once. Entries after “also recorded” stand apart in the source; their conditions may differ.

T1 sequence (P53341 whole entry): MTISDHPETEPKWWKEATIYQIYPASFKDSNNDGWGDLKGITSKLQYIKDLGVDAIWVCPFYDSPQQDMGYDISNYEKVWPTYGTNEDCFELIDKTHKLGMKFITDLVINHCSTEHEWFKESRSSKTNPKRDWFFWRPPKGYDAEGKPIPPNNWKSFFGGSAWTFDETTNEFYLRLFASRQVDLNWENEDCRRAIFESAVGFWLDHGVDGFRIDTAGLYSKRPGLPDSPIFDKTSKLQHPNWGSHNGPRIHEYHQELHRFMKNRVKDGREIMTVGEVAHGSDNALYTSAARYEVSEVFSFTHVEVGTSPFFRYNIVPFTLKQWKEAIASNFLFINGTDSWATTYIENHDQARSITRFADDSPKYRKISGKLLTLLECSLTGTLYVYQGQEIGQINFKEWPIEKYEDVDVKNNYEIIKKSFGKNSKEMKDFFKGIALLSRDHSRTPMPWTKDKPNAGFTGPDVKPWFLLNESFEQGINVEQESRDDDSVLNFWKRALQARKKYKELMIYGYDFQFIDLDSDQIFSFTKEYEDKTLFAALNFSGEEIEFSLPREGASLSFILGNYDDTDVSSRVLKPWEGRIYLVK

As to `CC[C@@H]1CN2CC[C@@]3(O)C(=Nc4cccc(OC)c43)[C@@H]2C[C@@H]1/C(=C\OC)C(=O)OC` [7-hydroxymitragynine], in experiment [1], the “analgesic activity, fold higher than that of mitragynine” value was 16 fold.

Take `C[C@H]1O[C@H](O[C@H]2[C@H](O)[C@@H](O)[C@@H](O[C@H]3[C@H](O)[C@@H](O)C(O)O[C@@H]3CO)O[C@@H]2CO)[C@H](O)[C@@H](O)[C@@H]1N[C@H]1C=C(CO)[C@@H](O)[C@H](O)[C@H]1O` (stereo partly shown) [Acarbose, reference compound]: the “α-Glucosidase mode of inhibition” value in experiment [2] was “mixed-type”; in experiment [2] (listed as acarbose) it was “mixed-type inhibition mode”.

Turning to `CC[C@@H]1CN2CCc3c([nH]c4cccc(OC)c34)[C@@H]2C[C@@H]1/C(=C\OC)C(=O)OC` [Mitragynine], the “α-Glucosidase mode of inhibition” value in experiment [2] is “noncompetitive”; in experiment [2] (listed as mitragynine), “noncompetitive inhibitor; also recorded: noncompetitive mode”. Also, the “pancreatic lipase IC50, fold higher than that of orlistat” value in experiment [3] is on record as 30 fold. In experiment [3] (0.35 mM 4MUO, 37 °C, mean ± SD, n = 3), the concentration for half-maximal inhibition (IC50) (usually the midpoint of a concentration-inhibition curve) was 24.9 µM and 24.7 µM. Further, the results for the “Pancreatic Lipase mode of inhibition” value in experiment [3] and in experiment [3] (listed as mitragynine) were “competitive” and “competitive inhibitors; also recorded: competitive mode”, respectively. Besides, the affinity in experiment [3] (from Lineweaver–Burk plots, 4MUO substrate) corresponds to a Ki of 14.9 µM. Besides, the “potency of combination with acarbose compared with kratom extract combinations” value in experiment [4] (mitragynine 100 µM with acarbose) is on record as “less potency than that of kratom extracts”. Moreover, the “IC50 of combination with acarbose compared with kratom extract combinations” value in experiment [4] (mitragynine 200 and 300 µM with acarbose) was “decreased IC50 values compared with that of mixed kratom extracts”. In addition, in experiment [4] (mitragynine combined with acarbose), the “interaction with acarbose in α-glucosidase inhibition” value was “synergistic interaction; also recorded: synergistic effect”.

Turning to `CCCCCCCCCCC[C@@H](C[C@@H]1OC(=O)[C@H]1CCCCCC)OC(=O)[C@H](CC(C)C)NC=O` [Orlistat, reference compound], the “reduction of dietary fat absorption” value in experiment [5] is recorded as “one-third”. Also, the “Pancreatic Lipase mode of inhibition” value in experiment [3] is on record as “competitive”; in experiment [3] (listed as orlistat), “competitive inhibitors; also recorded: competitive mode”.

These data come from paper PMC9572452, “Inhibition of α-Glucosidase and Pancreatic Lipase Properties of Mitragyna speciosa (Korth.) Havil. (Kratom) Leaves” (Nutrients, 2022).
